According to PMC6269904, “Two New Monoterpene Glycosides from Qing Shan Lu Shui Tea with Inhibitory Effects on Leukocyte-Type 12-Lipoxygenase Activity” (Molecules, 2013):

What was measured:
[1] = target: T1, leukocyte-type 12-lipoxygenase (leukocyte-type 12-LOX), porcine (Sus scrofa, UniProt P16469); assay: RP-HPLC of HETE products after reduction; assay type: biochemical
T1 construct: gene ALOX15; partially purified from J774A.1 cells overexpressing the porcine enzyme
T1 sequence (P16469 1-663): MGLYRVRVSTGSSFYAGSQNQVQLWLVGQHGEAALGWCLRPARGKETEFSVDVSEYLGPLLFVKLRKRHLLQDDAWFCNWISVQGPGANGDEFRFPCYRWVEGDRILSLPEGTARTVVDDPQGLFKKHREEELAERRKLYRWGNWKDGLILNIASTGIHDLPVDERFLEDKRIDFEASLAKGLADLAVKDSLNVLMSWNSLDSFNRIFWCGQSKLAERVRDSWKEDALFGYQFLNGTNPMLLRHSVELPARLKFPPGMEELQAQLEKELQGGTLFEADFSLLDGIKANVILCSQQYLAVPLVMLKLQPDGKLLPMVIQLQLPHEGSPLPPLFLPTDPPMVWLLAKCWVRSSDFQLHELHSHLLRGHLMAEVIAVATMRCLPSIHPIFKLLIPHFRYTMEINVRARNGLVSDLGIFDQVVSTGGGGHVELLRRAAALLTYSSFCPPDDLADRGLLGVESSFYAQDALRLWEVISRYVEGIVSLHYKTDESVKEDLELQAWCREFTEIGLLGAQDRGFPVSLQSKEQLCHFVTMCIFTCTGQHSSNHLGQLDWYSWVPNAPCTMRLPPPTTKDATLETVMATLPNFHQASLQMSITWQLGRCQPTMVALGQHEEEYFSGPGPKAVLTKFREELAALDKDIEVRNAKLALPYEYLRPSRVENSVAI

[2] = target: T1, leukocyte-type 12-lipoxygenase (leukocyte-type 12-LOX), porcine; assay: RP-HPLC of HETE products ([…] nm) after reduction; assay type: biochemical; settings: 25 μM arachidonic acid, 100 mM Tris-HCl pH 7.4, 30 °C, 5 min preincubation; partially purified enzyme

Row | IC50 [1] | Structure (SMILES) | no inhibition [2]
1 | 1700 nM | C/C(=C\CO[C@@H]1O[C@H](CO)[C@@H](OC(=O)/C=C/c2ccc(O)cc2)[C@H](O[C@@H]2O[C@@H](C)[C@H](O)[C@@H](O)[C@H]2O)[C@H]1O)C/C=C/C(C)(C)OO [compound 1, (2E,5E)-7-hydroperoxy-3,7-dimethyl-2,5-octadienyl-O-(α-L-rhamnopyranosyl)-(1″→3′)-(4′″-O-trans-p-coumaroyl)-β-D-glucopyranoside] | 
2 | 700 nM | C/C(=C\CO[C@@H]1O[C@H](CO)[C@@H](OC(=O)/C=C\c2ccc(O)cc2)[C@H](O[C@@H]2O[C@@H](C)[C@H](O)[C@@H](O)[C@H]2O)[C@H]1O)C/C=C/C(C)(C)OO [compound 2, (2E,5E)-7-hydroperoxy-3,7-dimethyl-2,5-octadienyl-O-(α-L-rhamnopyranosyl)-(1′′→3′)-(4′′′-O-cis-p-coumaroyl)-β-D-glucopyranoside] | 
3 |  | O=C(O)/C=C/c1ccc(O)cc1 [p-coumaric acid] | showed no inhibition on leukocyte-type 12-LOX activity
